Reference: article PMC12311725, “Identification of Ginsentide-like Peptides from Cacao Beans with Oxidative Stress Protection” (ACS Omega, 2025)
Where a SMILES comes first, the peptide text is derived from it. Bridges are numbered along the chain shown (N, C = ends).

Experiments:
HaCaT cell lysate = target: T1, HaCaT cell lysate (Homo sapiens, UniProt P22830); assay type: binding; details: affinity enrichment mass spectrometry
T1 construct: incubated with HaCaT keratinocyte lysates; endogenous in cells; host or cells: HaCaT human keratinocytes
T1 sequence (P22830 55-423): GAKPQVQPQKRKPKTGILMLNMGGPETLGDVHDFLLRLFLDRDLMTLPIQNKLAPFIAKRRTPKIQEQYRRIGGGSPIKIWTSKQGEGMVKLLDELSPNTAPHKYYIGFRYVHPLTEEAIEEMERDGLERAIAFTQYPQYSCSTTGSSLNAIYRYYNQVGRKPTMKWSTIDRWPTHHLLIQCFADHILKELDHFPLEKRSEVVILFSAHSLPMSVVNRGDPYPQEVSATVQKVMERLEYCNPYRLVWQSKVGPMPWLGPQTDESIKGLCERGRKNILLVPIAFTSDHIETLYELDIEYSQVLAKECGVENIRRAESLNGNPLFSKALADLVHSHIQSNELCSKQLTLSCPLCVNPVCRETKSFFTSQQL

HaCaT cells = experiment: Tandem-mass-tag (TMT) quantitative proteomic profiling; assay type: cell-based, human; details: serum starved overnight, 10 μM tC1 for 24 h, versus untreated
Experimental: Tandem-mass tag quantitative proteomic profiling was performed according to the manufacturer’s instructions . Briefly, HaCaT cells treated with or without cocotide tC1 were harvested and lysed by sonication for 3 min at 25% amplitude with a 2-s-on, 3-s-off pulse time in 8 M urea and 10 mM ammonium bicarbonate supplemented with a protease inhibitor. After centrifugation, quantification of the total proteins was performed by the BCA method. A total of 100 μg of protein from each condition was subjected to in-solution digestion before labeling the resultant peptides using the TMT-10plex Isobaric Label Reagent Set (Thermo Scientific, Rockford, IL, USA) according to the manufacturer’s protocol. […] Eluate was collected in 1 min fractions and strategically pooled via concatenation based on absorbance measurements at a wavelength of 280 nm. […]
The fractionated peptides were separated and analyzed using a Dionex Ultimate 3000 RSLCnano system coupled to a Q Exactive instrument (Thermo Fisher Scientific, MA, USA). […] Peptides were then analyzed on a Q Exactive apparatus with an EASY nanospray source (Thermo Fisher Scientific) at an electrospray potential of 1.8 kV. […] Raw data files were processed, searched, and TMT 10-plex was selected as the quantification method using Peaks Studio 11 with the UniProt human proteome (Proteome ID: UP000005640) as the reference proteome. […]

[1] = Peptide stability assay with trypsin (RP-HPLC); assay type: in vitro ADME; details: isolated enzyme trypsin, trypsin in 0.1 M ammonium bicarbonate buffer pH 8, 37 °C, peptide 0.1 M [sic], RP-HPLC peak area as % of initial, read-out: structural integrity retained (percentage of peptide remaining) after incubation with trypsin
Experimental: Stability studies were conducted using purified cocotide tC1 (0.1 M) and S-alkylated tC1 (iodoacetamido) under specific buffer conditions. Pepsin stability was assessed by incubating the samples in a mixture of pepsin at a ratio of 50:1 (w/v) in 0.2 M HCl at 37 °C. For trypsin stability, the samples were treated with trypsin in 0.1 M ammonium bicarbonate buffer (pH 8) at 37 °C. Analysis of stability assays involved collecting samples at various time points, which were then analyzed by reversed-phase high-performance liquid chromatography (RP-HPLC) using a linear gradient of mobile phase A (0.05% trifluoroacetic acid in water) and mobile phase B (0.05% trifluoroacetic acid in acetonitrile) on an Aeris Peptide XB-C18 column (Phenomenex). The stability results were expressed as a percentage of the initial concentration and determined by the peak area of the HPLC profile.
7 Proteolytic stability assays of cocotide tC1. Cocotide tC1 was incubated with either pepsin or trypsin at 37 °C for up to 6 h. S-alkylated tC1 was used as the control. At different time points, samples of cocotide tC1 and the control were quantified using reversed-phase high pressure liquid chromatography (RP-HPLC). The relative peak areas of the RP-HPLC profiles were used to quantify the percentage of peptides remaining after incubation with pepsin or trypsin.

With `CC[C@H](C)[C@@H]1NC(=O)CNC(=O)[C@H](CCSC)NC(=O)[C@@H]2CCCN2C(=O)[C@H](Cc2ccc(O)cc2)NC(=O)[C@H](CC(C)C)NC(=O)[C@@H]2CSSC[C@@H]3NC(=O)[C@H](Cc4ccccc4)NC(=O)CNC(=O)CNC(=O)[C@H](C)NC(=O)[C@H](CO)NC(=O)[C@H](CC(C)C)NC(=O)[C@@H](N)CSSC[C@@H]4NC(=O)[C@H](CSSC[C@H](NC1=O)C(=O)N[C@@H](Cc1ccc(O)cc1)C(=O)NCC(=O)N[C@@H](CO)C(=O)NCC(=O)N[C@H](C(=O)O)CSSC[C@H](NC(=O)[C@H](CC(N)=O)NC(=O)CNC4=O)C(=O)NCC(=O)N2)NC(=O)[C@H](CC(=O)O)NC(=O)[C@H](CCSC)NC(=O)[C@@H]1CCCN1C(=O)[C@H](CC(N)=O)NC(=O)[C@H](Cc1ccccc1)NC(=O)[C@H](CCSC)NC3=O` [cocotide tC1] (H-CLSAGGFCMFNPMDCCGNCGCLYPMGICYGSGC-OH; disulfide 1-16, 8-21, 15-28, 19-33; N-terminus and C-terminus assumed) the “ferrochelatase as interacting protein” value (HaCaT cell lysate) was “significant interacting partner”, the “number of downregulated proteins (minimum 2-fold, significance value >15)” value (HaCaT cells) was 3 proteins and the “number of upregulated proteins (minimum 2-fold, significance value >15)” value (HaCaT cells) was 19 proteins. For the same compound, the remaining at 6 h [1] was > 80%.
